Assay results published in ChEMBL document CHEMBL3351221, “Synthetic derivatives of aromatic abietane diterpenoids and their biological activities” (Eur J Med Chem, 2014).
≈ marks a conversion by molar mass, not a printed value.

What was measured:
MRC5 = test: Cytotoxicity against human MRC5 cells; format: cell-based
Mus musculus = test: Gastroprotective activity in mouse assessed as reduction in HCl/EtOH-induced gastric lesions at 20 mg/kg; format: functional; settings: Stomach
AGS = test: Cytotoxicity against human AGS cells; format: cell-based
SMMC-7721 = test: Cytotoxicity against human SMMC7721 cells; format: functional, cell-based
[1] = Cytotoxicity against human Hey-1B cells; format: functional, cell-based

| SMILES | IC50 (MRC5) | inhibition in vivo at 20 mg/kg (Mus musculus) | IC50 (AGS) | IC50 (SMMC-7721) | IC50 [1] |
| --- | --- | --- | --- | --- | --- |
| CC(C)c1cc2c(cc1OC(=O)Cc1c[nH]c3ccccc13)[C@@]1(C)CCCC(C)(C)[C@@H]1CC2 | > 1000 µM | 50% | 12 µM |  |  |
| CC(C)c1ccc2c(c1)CC[C@H]1[C@](C)(C/N=C/c3ccc(F)cc3)CCC[C@]21C |  |  |  | 44.5 µM |  |
| CC(C)c1cc2c(cc1O)[C@@]1(C)CCCC(C)(C)[C@@H]1CC2 [FERRUGINOL] | 19 µM |  | 18 µM |  |  |
| CC(C)c1cc2c(cc1O[C@@H]1O[C@H](CO)[C@H](O)[C@H](O)[C@H]1O)[C@@]1(C)CCCC(C)(C)[C@@H]1CC2 | 19 µM | 61% | 18 µM |  |  |
| CC(C)c1cc2c(cc1OC(=O)c1cc([N+](=O)[O-])cc([N+](=O)[O-])c1)[C@@]1(C)CCCC(C)(C)[C@@H]1CC2 | > 1000 µM |  | 29 µM |  |  |
| CC(Cl)C(=O)Oc1cc2c(cc1C(C)C)CC[C@H]1C(C)(C)CCC[C@]21C (stereo partly drawn) | 19 µM | 76% | 18 µM |  |  |
| Cc1c(C(=O)Oc2cc3c(cc2C(C)C)CC[C@H]2C(C)(C)CCC[C@]32C)oc2ccccc12 | > 1000 µM | 50% |  |  |  |
| CCCCCCCCCCCCCCCC(=O)Oc1cc2c(cc1C(C)C)CC[C@H]1C(C)(C)CCC[C@]21C | > 1000 µM | 50% |  |  |  |
| CC(C)c1cc2c(cc1O[C@@H]1O[C@H](CO)[C@@H](O)[C@H](O)[C@H]1O)[C@@]1(C)CCCC(C)(C)[C@@H]1CC2 | 19 µM |  | 18 µM |  |  |
| COc1ccc(/C=N/c2cc3c(cc2C(C)C)CC[C@H]2[C@](C)(CNC(C)=O)CCC[C@]32C)cc1 |  |  |  |  | 15 µg/mL (≈ 32.6 µM) |
| CC(=O)NC[C@]1(C)CCC[C@]2(C)c3cc(/N=C/c4cc(O)ccc4O)c(C(C)C)cc3CC[C@@H]12 |  |  |  |  | 15 µg/mL (≈ 32.4 µM) |
| CC(C)c1cc2c(cc1OC=O)[C@@]1(C)CCCC(C)(C)[C@@H]1CC2 | 19 µM |  | 18 µM |  |  |
| CC(C)c1ccc2c(c1)CC[C@H]1[C@](C)(NC(=O)N3CCCCC3)CCC[C@]21C |  |  |  | 8.8 µM |  |
| C=CC(=O)Oc1cc2c(cc1C(C)C)CC[C@H]1C(C)(C)CCC[C@]21C | 19 µM | 67% | 18 µM |  |  |
| CC(=O)Oc1cc2c(cc1C(C)C)CC[C@H]1C(C)(C)CCC[C@]21C | 19 µM |  | 18 µM |  |  |
| CC(C)c1cc2c(cc1OC(=O)CCCc1c[nH]c3ccccc13)[C@@]1(C)CCCC(C)(C)[C@@H]1CC2 | > 1000 µM | 50% |  |  |  |
| CCCCCCCC/C=C/CCCCCCCC(=O)Oc1cc2c(cc1C(C)C)CC[C@H]1C(C)(C)CCC[C@]21C | > 1000 µM | 50% |  |  |  |
| CC(C)c1cc2c(cc1OC(=O)c1cccnc1)[C@@]1(C)CCCC(C)(C)[C@@H]1CC2 | > 1000 µM | 71% | 22 µM |  |  |
| CC(=O)NC[C@]1(C)CCC[C@]2(C)c3cc(/N=C/c4cccc(O)c4)c(C(C)C)cc3CC[C@@H]12 |  |  |  |  | 15 µg/mL (≈ 33.6 µM) |
| CC(C)c1ccc2c(c1)CC[C@H]1[C@](C)(NC(=O)Nc3cc(F)cc(F)c3)CCC[C@]21C |  |  |  | 8.8 µM |  |
| CC(=O)NC[C@]1(C)CCC[C@]2(C)c3cc(/N=C/c4ccc(O)cc4O)c(C(C)C)cc3CC[C@@H]12 |  |  |  |  | 15 µg/mL (≈ 32.4 µM) |
| CC(=O)NC[C@]1(C)CCC[C@]2(C)c3cc(/N=C/c4cc(Br)cc(Br)c4O)c(C(C)C)cc3CC[C@@H]12 |  |  |  |  | 15 µg/mL (≈ 24.8 µM) |
| CC(=O)OC[C@H]1O[C@@H](Oc2cc3c(cc2C(C)C)CC[C@H]2C(C)(C)CCC[C@]32C)[C@H](OC(C)=O)[C@@H](OC(C)=O)[C@@H]1OC(C)=O | > 1000 µM | 72% | > 1000 µM |  |  |
| CCC(=O)Oc1cc2c(cc1C(C)C)CC[C@H]1C(C)(C)CCC[C@]21C | 19 µM |  | 18 µM |  |  |
| CC(C)c1ccc2c(c1)CC[C@H]1C(C)(C)CCC[C@]21C |  | 69% |  |  |  |
| CC(C)c1ccc2c(c1)CC[C@H]1[C@](C)(NC(=O)Nc3ccc(F)cc3)CCC[C@]21C |  |  |  | 8.8 µM |  |
